Assay results taken from patent publication US8067042B1 (Mutual Pharmaceutical Company, Inc., priority 2007, dated 2011).
Where “and” joins values, the source holds several entries; their conditions need not be identical. Equal values may be shown once. Read-outs that look alike come from different tables or passages of the source.

Tests used:
CYP2C9 = CYP2C9 (Homo sapiens, UniProt P11712)
Protocol: (§4) The stock solutions were added to incubation mixtures to obtain the final concentrations of 5 and 50 μM, each containing 1% acetonitrile.
Microsomes were prepared by differential centrifugation of liver homogenates pooled from at least ten human donors.
(§5) After a 5 minute preincubation, nicotinamide adenine dinucleotide phosphate (NADPH) regenerating system (NRS; 1.7 mg/mL β-NADP, 7.8 mg/mL glucose-6-phosphate, and 6 units/mL glucose-6-phosphate dehydrogenase in 2% sodium bicarbonate solution) was added to initiate the reaction. The final incubation volume was 0.5 mL. Incubations were continued for 60 minutes.
(§6) All incubations were conducted at 37±1° C. in a shaking water bath. All incubations were carried out in triplicates.
(§7) After a 5-minute preincubation, 2% sodium bicarbonate solution was added to the incubation mixtures. The final incubation volume was 0.5 mL. Incubations were continued for 60 minutes.
(§8) Incubation reactions, including the matrix controls and metabolic negative controls, were terminated by adding 0.5 mL methanol.
(§9) The samples were analyzed on a Supelcosil LC-18 column (3μ, 120 Å, 3.0×100 mm).

[1] = target: T1, Human CYP2C8 + P450 Reductase + Cytochrome b5 SUPERSOMES (Homo sapiens, UniProt P10632)
T1 sequence (P10632 1-490): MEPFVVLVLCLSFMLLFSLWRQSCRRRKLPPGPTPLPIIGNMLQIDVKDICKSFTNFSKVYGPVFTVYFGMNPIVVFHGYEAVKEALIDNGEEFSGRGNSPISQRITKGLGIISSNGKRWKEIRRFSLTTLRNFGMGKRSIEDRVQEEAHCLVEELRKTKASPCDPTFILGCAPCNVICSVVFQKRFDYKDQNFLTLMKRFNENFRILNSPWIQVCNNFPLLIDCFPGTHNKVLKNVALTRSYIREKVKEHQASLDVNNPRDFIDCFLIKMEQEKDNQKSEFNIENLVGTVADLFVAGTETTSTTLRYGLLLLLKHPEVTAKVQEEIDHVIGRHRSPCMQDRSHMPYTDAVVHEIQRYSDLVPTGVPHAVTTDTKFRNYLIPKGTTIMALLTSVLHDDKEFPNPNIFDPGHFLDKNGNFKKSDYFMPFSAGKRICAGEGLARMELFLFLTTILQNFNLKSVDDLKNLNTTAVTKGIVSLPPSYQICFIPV
Protocol: (§1) In this study, individual CYP isoforms expressed from human cDNA and P450 reductase cDNA were used (BD SUPERSOMES™ Enzymes, BD Biosciences Discovery Labware, Woburn, Mass.). SUPERSOMES™ are microsomes from baculovirus-infected insect cells containing singly expressed recombinant human CYP enzymes.
(§2) After a 5-minute preincubation, an appropriate amount of the appropriate buffer was added to the reaction mixtures to make the final volume of 0.5 mL. The incubations were continued for 60 minutes.
(§3) All incubation reactions were terminated by adding 0.5 mL methanol, and the samples were transferred to cryovials and stored at −70±10° C. until analysis.

[2] = target: T2, Human CYP1A2 + P450 Reductase SUPERSOMES (Homo sapiens, UniProt P05177)
T2 sequence (P05177 2-516 limits assumed): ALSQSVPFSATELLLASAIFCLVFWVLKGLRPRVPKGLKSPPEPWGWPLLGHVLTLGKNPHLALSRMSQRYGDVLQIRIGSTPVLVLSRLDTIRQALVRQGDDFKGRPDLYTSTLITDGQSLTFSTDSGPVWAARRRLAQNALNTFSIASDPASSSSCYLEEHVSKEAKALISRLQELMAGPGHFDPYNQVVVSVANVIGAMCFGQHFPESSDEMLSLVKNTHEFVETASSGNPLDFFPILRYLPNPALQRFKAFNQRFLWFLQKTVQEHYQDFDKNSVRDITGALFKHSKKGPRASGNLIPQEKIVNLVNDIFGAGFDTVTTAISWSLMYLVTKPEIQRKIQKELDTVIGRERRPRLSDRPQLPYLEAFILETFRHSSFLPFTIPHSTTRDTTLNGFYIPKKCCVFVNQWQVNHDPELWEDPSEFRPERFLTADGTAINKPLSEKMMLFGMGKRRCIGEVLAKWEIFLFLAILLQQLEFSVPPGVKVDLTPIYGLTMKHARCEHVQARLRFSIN
Protocol: as §1, §2, §3

[3] = target: Human CYP2D6*1 + P450 Reductase SUPERSOMES (Homo sapiens, UniProt P10635)
Protocol: as §1, §2, §3

CYP3A4 = CYP3A4 (Homo sapiens, UniProt P08684); assay type: in vitro ADME; parameters: purchased BD Biosciences Discovery Labware, Woburn, Mass; host or cells: baculovirus-infected insect cells; conditions: 50 μM megestrol acetate, 20 pmol CYP3A4
CYP1A2 = target: T3, CYP1A2 (Homo sapiens, UniProt P05177); assay type: in vitro ADME; conditions: 50 μM megestrol acetate, microsomes
T3 sequence (P05177 1-516): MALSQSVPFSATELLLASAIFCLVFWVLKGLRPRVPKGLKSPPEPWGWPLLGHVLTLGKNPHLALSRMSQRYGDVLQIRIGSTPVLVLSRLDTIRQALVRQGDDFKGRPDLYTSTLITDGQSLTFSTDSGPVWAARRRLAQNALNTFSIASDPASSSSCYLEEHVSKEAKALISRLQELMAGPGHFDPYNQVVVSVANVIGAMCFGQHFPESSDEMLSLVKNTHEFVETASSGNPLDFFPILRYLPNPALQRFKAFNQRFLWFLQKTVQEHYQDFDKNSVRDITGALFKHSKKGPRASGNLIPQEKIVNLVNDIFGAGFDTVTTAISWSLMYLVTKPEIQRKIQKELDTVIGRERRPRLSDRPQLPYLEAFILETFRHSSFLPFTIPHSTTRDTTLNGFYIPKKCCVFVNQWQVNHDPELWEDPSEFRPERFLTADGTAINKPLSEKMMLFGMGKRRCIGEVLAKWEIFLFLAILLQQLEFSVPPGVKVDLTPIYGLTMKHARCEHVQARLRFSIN

[4] = human, microsomes, 60 min, pH 7.4
[5] = 5 μM, 5 pmol enzyme, listed as megestrol acetate
[6] = 5 μM, 20 pmol enzyme, listed as megestrol acetate
[7] = 50 μM, 5 pmol enzyme, listed as megestrol acetate
[8] = 50 μM, 20 pmol enzyme, listed as megestrol acetate

Chain of CYP2C9 (P11712 whole entry): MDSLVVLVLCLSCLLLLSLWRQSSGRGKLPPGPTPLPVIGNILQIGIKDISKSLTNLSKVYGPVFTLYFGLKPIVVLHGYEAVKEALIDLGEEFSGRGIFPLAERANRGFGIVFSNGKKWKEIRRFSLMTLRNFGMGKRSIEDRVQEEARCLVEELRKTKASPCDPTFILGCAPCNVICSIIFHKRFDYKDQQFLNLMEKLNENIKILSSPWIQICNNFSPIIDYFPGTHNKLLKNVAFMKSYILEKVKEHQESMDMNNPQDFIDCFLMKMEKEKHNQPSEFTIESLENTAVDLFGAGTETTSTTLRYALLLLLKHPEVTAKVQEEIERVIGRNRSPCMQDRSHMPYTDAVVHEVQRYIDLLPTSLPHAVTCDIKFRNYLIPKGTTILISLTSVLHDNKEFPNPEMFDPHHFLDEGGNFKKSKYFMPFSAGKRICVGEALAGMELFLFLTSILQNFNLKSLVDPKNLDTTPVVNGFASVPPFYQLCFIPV
Chain of CYP3A4 (P08684 2-503 limits assumed): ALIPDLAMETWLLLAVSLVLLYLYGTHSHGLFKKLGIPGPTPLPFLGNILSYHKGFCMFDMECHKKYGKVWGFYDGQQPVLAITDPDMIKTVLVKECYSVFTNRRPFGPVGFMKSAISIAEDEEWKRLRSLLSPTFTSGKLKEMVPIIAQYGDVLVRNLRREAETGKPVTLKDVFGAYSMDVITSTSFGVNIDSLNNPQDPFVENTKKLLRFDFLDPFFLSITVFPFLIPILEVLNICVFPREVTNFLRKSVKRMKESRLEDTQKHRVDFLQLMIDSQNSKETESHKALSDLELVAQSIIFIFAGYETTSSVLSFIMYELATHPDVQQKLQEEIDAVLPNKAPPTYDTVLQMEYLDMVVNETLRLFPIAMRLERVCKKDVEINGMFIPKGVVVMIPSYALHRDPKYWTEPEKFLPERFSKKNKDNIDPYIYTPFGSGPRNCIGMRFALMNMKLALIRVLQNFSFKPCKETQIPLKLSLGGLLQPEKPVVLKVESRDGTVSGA
Protocol for CYP2E1: as §4, §5, §6, §7, §8, §9

## CC(=O)O[C@]1(C(C)=O)CC[C@H]2[C@@H]3C=C(C)C4=CC(=O)CC[C@]4(C)[C@H]3CC[C@@]21C [Megestrol Acetate, 17 α-acetyloxy-6-methylpregna-4,6-diene-3,20-dione]
CYP2C9
  percent metabolized in presence vs absence of inhibitor (unpaired two-tailed t-test): not different from the percentage of megestrol acetate metabolized in the absence of the inhibitor
CYP2C9; [4]
  metabolized in pooled human liver microsomes: > 20%
CYP2E1
  percent metabolized in presence vs absence of inhibitor (unpaired two-tailed t-test): less than that of the percentage of megestrol acetate metabolized in the absence of the inhibitor
CYP2E1; [4]
  metabolized in pooled human liver microsomes: > 20%
[1]; 5 μM, 5 pmol enzyme
  Individual Raw Data Observed: 2.202 µM and 3.025 µM and 2.609 µM
  Percent of Parent Disappearance Mean ± SD: −18.0 ± 18.6%
[1]; [5]
  Percent of Parent Disappearance Mean ± SD: no disappearance of megestrol acetate was detected
[1]; 5 μM, 20 pmol enzyme
  Individual Raw Data Observed: 1.94 µM and 1.985 µM and 2.045 µM
  Percent of Parent Disappearance Individual: 2.05% and −0.201% and −3.26%
  Percent of Parent Disappearance Mean ± SD: −0.468 ± 2.66%
[1]; [6]
  Percent of Parent Disappearance Mean ± SD: no disappearance of megestrol acetate was detected
[1]; 50 μM, 5 pmol enzyme
  Individual Raw Data Observed: 21.4 µM and 22.9 µM and 22.7 µM
  Percent of Parent Disappearance Individual: 1.01% and −5.95% and −5.01%
  Percent of Parent Disappearance Mean ± SD: −3.32 ± 3.78%
[1]; [7]
  Percent of Parent Disappearance Mean ± SD: no disappearance of megestrol acetate was detected
[1]; 50 μM, 20 pmol enzyme
  Individual Raw Data Observed: 19.69 µM and 20.64 µM and 20.58 µM
  Percent of Parent Disappearance Individual: −0.513% and −5.33% and −5.02%
  Percent of Parent Disappearance Mean ± SD: −3.62 ± 2.70%
[1]; [8]
  Percent of Parent Disappearance Mean ± SD: no disappearance of megestrol acetate was detected
[2]; 5 μM, 5 pmol enzyme
  Individual Raw Data Observed: 2.044 µM and 2.183 µM and 2.216 µM
  Percent of Parent Disappearance Individual: −2.76% and −9.79% and −11.4%
  Percent of Parent Disappearance Mean ± SD: −7.99 ± 4.60%
[2]; [5]
  Percent of Parent Disappearance Mean ± SD: no disappearance of the substrate was detected
[2]; 5 μM, 20 pmol enzyme
  Individual Raw Data Observed: 2.309 µM and 2.295 µM and 2.254 µM
  Percent of Parent Disappearance Individual: 5.51% and 6.07% and 7.78%
  Percent of Parent Disappearance Mean ± SD: 6.45 ± 1.18%
[2]; [6]
  Percent of Parent Disappearance Mean ± SD: 6.45±1.18%
[2]; 50 μM, 5 pmol enzyme
  Individual Raw Data Observed: 20.03 μM (2×) and 19.46 μM
  Percent of Parent Disappearance Individual: −5.05% and −5.02% and −2.05%
  Percent of Parent Disappearance Mean ± SD: −4.04 ± 1.72%
[2]; [7]
  Percent of Parent Disappearance Mean ± SD: no disappearance of the substrate was detected
[2]; 50 μM, 20 pmol enzyme
  Individual Raw Data Observed: 19.6 µM and 20.86 µM and 20.65 µM
  Percent of Parent Disappearance Individual: 11.0% and 5.29% and 6.24%
  Percent of Parent Disappearance Mean ± SD: 7.51 ± 3.06%
[2]; [8]
  Percent of Parent Disappearance Mean ± SD: 7.51±3.06%
[3]; 5 μM, 5 pmol enzyme
  Individual Raw Data Observed: 1.94 µM and 2.747 µM and 2.056 µM
  Percent of Parent Disappearance Mean ± SD: −13.6 ± 022.0%
[3]; [5]
  Percent of Parent Disappearance Mean ± SD: no substrate disappearance was detected
[3]; 5 μM, 20 pmol enzyme
  Individual Raw Data Observed: 2.325 µM and 2.386 µM and 2.39 µM
  Percent of Parent Disappearance Individual: 4.68% and 2.15% and 2.01%
  Percent of Parent Disappearance Mean ± SD: 2.95 ± 1.50%
[3]; [6]
  Percent of Parent Disappearance Mean ± SD: 2.95±2.46%
[3]; 50 μM, 5 pmol enzyme
  Individual Raw Data Observed: 18.2 µM and 22.44 µM and 18.03 µM
  Percent of Parent Disappearance Individual: −3.00% and −27.0% and −2.03%
[3]; [7]
  Percent of Parent Disappearance Mean ± SD: no substrate disappearance was detected
[3]; 50 μM, 20 pmol enzyme
  Individual Raw Data Observed: 12.44 µM and 13.43 µM and 12.62 µM
  Percent of Parent Disappearance Individual: 1.88% and −5.91% and 0.449%
  Percent of Parent Disappearance Mean ± SD: −1.19 ± 04.14%
[3]; [8]
  Percent of Parent Disappearance Mean ± SD: no substrate disappearance was detected
CYP3A4
  metabolism of megestrol acetate by mass spectrometric methods: More than 50%
CYP1A2
  difference in metabolism in the presence or absence of the inhibitor (LC/MS): no significant difference in metabolism
